# Experimental data: patent US9839642B2, “Beta-tetrazolyl-propionic acids as metallo-beta-lactamase inhibitors” (priority 2014, dated 2017)
# pIC50: −log10 of the molar value. Where two headings read alike, the source gives them in different places.
# Assays:
# [1] = system: Serratia marcescens expressing IMP-1 (CL5741); test: Antibiotic potentiation activity: synergistic concentration (MITC95) with imipenem, growth by OD600; format: cell-based
# Procedure: (§1) Antibiotic Potentiation Activity: Determination of Synergistic Concentration
# (§2) The bacterial strains tested included the clinical strains Escherichia coli expressing NDM-1 (CLB30005, CLB30016), Serratia marcescens expressing IMP-1 (CL5741), and Klebsiella pneumoniae expressing VIM-1 (IHMA599644). Inhibitor activity was measured in the presence and absence of imipenem or ceftazidime in a 384-well microplate.
# (§3) The clinical strains CLB30016, CL5741, and IHMA599644 were grown on trypticase soy agar containing 5% sheep's blood. The clinical strain CLB30005 was grown on Mueller Hinton broth agar containing 8 μg/ml imipenem. The bacteria on agar plates were incubated overnight at 35° C. with ambient humidity (achieved from an open pan of water inside the incubator). The following day, individual colonies from each clinical strain were picked and resuspended in 5 ml saline to attain an OD600 of 0.14, 0.11, 0.15 and 0.13, for CLB30005, CLB30016, CL5741 and IHMA599644, respectively. These were further diluted 1:100 into 1.1×CAMHB and used to inoculate the test wells as described below.
# (§4) Imipenem in 10 mM 3-(N-morpholino)propanesulfonic acid (MOPS, pH 7) was stored in single use aliquots at −80° C. Test inhibitors were dissolved in DMSO and diluted 1:50 in the assay, resulting in a final concentration range of 200 μM to 0.195 μM. On the day of the assay, 4 μl of antibiotic was added to 45 μl of bacteria followed by 1 μl of test compound and mixed by pipetting and with an orbital shaker. The concentration of antibiotic used in the assay was 1 μg/ml or 4 μg/ml. Microplates were covered and incubated at 35° C. for 22 hours to 24 hours. At the end of the incubation, absorbance was determined using a spectrophotometer. The synergistic concentration of MBLI was determined by identifying the lowest concentration of test compound in the presence of a given concentration of antibiotic that was required to inhibit 95% of the growth of the bacteria.
# (§5) Representative compounds of the present invention display a synergistic effect. For example, representative compounds of EXAMPLES 1-456 were determined to restore susceptibility to imipenem at concentrations of 200 μM or less.
# [2] = system: Escherichia coli expressing NDM-1 (CLB30016); test: as above; format: cell-based
# Procedure: as §1, §2, §3, §4, §5
# [3] = system: Klebsiella pneumoniae expressing VIM-1 (IHMA599644); test: as above; format: cell-based
# Procedure: as §1, §2, §3, §4, §5
# IMP-1 = IMP-1 (Serratia marcescens, UniProt P52699); test: Enzyme activity: determination of IC50, fluorescence assay with CCF2-FA substrate; format: biochemical; conditions: CCF2-FA 1.25 μM, 2 hours at 25° C., read-out: IMP1 IC50
# IMP-1, sequence (P52699 19-246, looked up, species assumed): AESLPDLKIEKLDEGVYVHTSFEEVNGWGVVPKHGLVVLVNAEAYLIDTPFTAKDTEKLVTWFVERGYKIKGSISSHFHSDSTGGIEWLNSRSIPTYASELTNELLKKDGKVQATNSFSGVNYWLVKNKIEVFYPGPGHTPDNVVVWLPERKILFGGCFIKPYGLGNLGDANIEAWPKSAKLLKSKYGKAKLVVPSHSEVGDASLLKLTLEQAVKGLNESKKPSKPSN
# Procedure: (§6) Enzyme Activity: Determination of IC50
# (§7) The Class B enzyme activities were measured in the presence of a compound of the EXAMPLES as a test inhibitor in a fluorescence assay against a commercially available substrate consisting of a cephalosporin core linking 7-hydroxycoumarin to fluorescein (CCF2-FA; Life Technologies, Grand Island, N.Y.). The enzyme (NDM-1, IMP-1 or VIM-1) and the substrate were diluted in 100 mM KH2PO4 buffer (pH 7) containing 0.005% Tween-20 and 10 μM ZnSO4. In the assay, the final concentration of enzyme was 1 pM, 2 pM and 30 pM for NDM-1, IMP-1 and VIM-1, respectively, and the final concentration of CCF2-FA was 1.25 μM. The test inhibitor was dissolved in DMSO and diluted 1:50 in the assay, resulting in a final concentration range of 20 μM to 0.00063 μM. In a 384-well microplate, the test inhibitor was incubated with the metallo-β-lactamase enzyme and the substrate for 2 hours at 25° C. Fluorescence at 460 nm following excitation at 405 nm was measured. The IC50 value was determined from semi-logarithmic plots of enzyme inhibition versus inhibitor concentration, with a curve generated using a 4-parameter fit.
# VIM-1 = VIM-1 (Pseudomonas aeruginosa, UniProt A0A0F7KYQ8); test: as above; format: biochemical; conditions: CCF2-FA 1.25 μM, 2 hours at 25° C., read-out: VIM1 IC50
# Procedure: as §6, §7
# NDM-1 = NDM-1 (Klebsiella pneumoniae, UniProt C7C422); test: as above; format: biochemical; conditions: CCF2-FA 1.25 μM, 2 hours at 25° C., read-out: NDM1 IC50
# NDM-1, sequence (C7C422 29-270, looked up, species assumed): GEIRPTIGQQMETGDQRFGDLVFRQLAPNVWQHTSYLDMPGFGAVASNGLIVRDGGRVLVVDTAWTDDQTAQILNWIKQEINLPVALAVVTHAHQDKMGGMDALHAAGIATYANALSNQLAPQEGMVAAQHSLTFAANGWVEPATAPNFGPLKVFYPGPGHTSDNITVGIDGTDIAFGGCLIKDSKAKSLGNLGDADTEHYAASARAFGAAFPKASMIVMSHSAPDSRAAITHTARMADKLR
# Procedure: as §6, §7
# [4] = S. marcescens CL5741 (IMP-1), 95% inhibition of growth
# [5] = E. coli CLB30016 (NDM-1), 95% inhibition of growth
# [6] = K. pneumoniae IHMA599644 (VIM-1), 95% inhibition of growth
# [7] = 95% inhibition of bacterial growth, strain CL5741
# [8] = 95% inhibition of bacterial growth, strain CLB30016
# [9] = 95% inhibition of bacterial growth, strain IHMA599644
compound,measurement,setting,value
"CCC[C@H](C(=O)O)[C@H](Cc1ccc(C2CCNCC2O)cc1)c1nnn[nH]1 (mixture of isomers) [Example 416, (2S)-2-((1S)-2-(4-(3-hydroxypiperidin-4-yl)phenyl)-1-(1H-tetrazol-5-yl)ethyl)pentanoic acid]",IMP1 SM5741 MITC95,[1]; [4],25 µM
same,NDM1 EC30016 MITC95,[2]; [5],25 µM
same,VIM1 KP599644 MITC95,[3]; [6],25 µM
same,pIC50,IMP-1; IMP-1 enzyme 2 pM,5.94
same,pIC50,VIM-1; VIM-1 enzyme 30 pM,7.68
same,pIC50,NDM-1; NDM-1 enzyme 1 pM,6.55
"CCC[C@H](C(=O)O)C(Cc1cccc(C(F)(F)F)c1)c1nnn[nH]1 (stereo in doubt) [Example 267, (2S)-2-{(1S)-1-(1H-tetrazol-5-yl)-2-[3-(trifluoromethyl)phenyl]ethyl}pentanoic acid]",IMP1 SM5741 MITC95,[1]; [4],9.4 µM
same,NDM1 EC30016 MITC95,[2]; [5],9.4 µM
same,VIM1 KP599644 MITC95,[3]; [6],18.8 µM
same,pIC50,IMP-1; IMP-1 enzyme 2 pM,6.55
same,pIC50,VIM-1; VIM-1 enzyme 30 pM,9.07
same,pIC50,NDM-1; NDM-1 enzyme 1 pM,7.85
"CCC[C@H](C(=O)O)C(Cc1ccccc1C(F)(F)F)c1nnn[nH]1 (stereo in doubt) [Example 268, (2S)-2-{(1S)-1-(1H-tetrazol-5-yl)-2-[2-(trifluoromethyl)phenyl]ethyl}pentanoic acid]",IMP1 SM5741 MITC95,[1]; [4],75 µM
same,NDM1 EC30016 MITC95,[2]; [5],7.8 µM
same,VIM1 KP599644 MITC95,[3]; [6],12.5 µM
same,pIC50,IMP-1; IMP-1 enzyme 2 pM,5.57
same,pIC50,VIM-1; VIM-1 enzyme 30 pM,8.49
same,pIC50,NDM-1; NDM-1 enzyme 1 pM,8.19
"CCC[C@H](C(=O)O)[C@H](Cc1cccc(Br)c1)c1nn[nH]n1 [Example 16, (S)-2-((S)-2-(3-bromophenyl)-1-(2H-tetrazol-5-yl)ethyl)pentanoic acid]",IMP1 SM5741 MITC95,[1]; [7],4.7 µM
same,NDM1 EC30016 MITC95,[2]; [8],9.4 µM
same,VIM1 KP599644 MITC95,[3]; [9],9.4 µM
same,pIC50,IMP-1; enzyme 2 pM,6.92
same,pIC50,VIM-1; enzyme 30 pM,9.12
same,pIC50,NDM-1; enzyme 1 pM,7.92
"CC(C)[C@H](C(=O)O)[C@H](Cc1csc(C2=CCNC2)n1)c1nnn[nH]1 [Example 71, (2S,3S)-4-(2-(2,5-dihydro-1H-pyrrol-3-yl)thiazol-4-yl)-2-isopropyl-3-(1H-tetrazol-5-yl)butanoic acid]",IMP1 SM5741 MITC95,[1]; [7],>200 µM
same,NDM1 EC30016 MITC95,[2]; [8],12.5 µM
same,VIM1 KP599644 MITC95,[3]; [9],25 µM
same,pIC50,VIM-1; enzyme 30 pM,6.92
same,pIC50,NDM-1; enzyme 1 pM,6.24
"CCC[C@H](C(=O)O)[C@H](Cc1cnc(N2CCNCC2)s1)c1nnn[nH]1 [Example 120, (S)-2-((S)-2-(2-(piperazin-1-yl)thiazo1-5-yl)-1-(1H-tetrazol-5-yl)ethyl)pentanoic acid]",IMP1 SM5741 MITC95,[1]; [7],>200 µM
same,NDM1 EC30016 MITC95,[2]; [8],25 µM
same,VIM1 KP599644 MITC95,[3]; [9],37 µM
same,pIC50,VIM-1; enzyme 30 pM,8.07
same,pIC50,NDM-1; enzyme 1 pM,5.92
"CC(C)C[C@H](C(=O)O)[C@H](Cc1ccc(N2CC(N3CCNCC3)C2)nc1)c1nnn[nH]1 [Example 324, (2S)-4-methyl-2-[(1S)-2-[6-(3-piperazin-1-ylazetidin-1-yl)pyridin-3-yl]-1-(1H-tetrazol-5-yl)ethyl]pentanoic acid]",IMP1 SM5741 MITC95,[1]; [4],>200 µM
same,NDM1 EC30016 MITC95,[2]; [5],>200 µM
same,VIM1 KP599644 MITC95,[3]; [6],>200 µM
"CC(C)C[C@H](C(=O)O)[C@H](Cc1ccc(N2CC(N3CCNCC3)C2)nc1)c1nnn[nH]1 [Example 334, (2S)-4-methyl-2-[(1S)-2-[6-(3-piperazin-1-ylazetidin-1-yl)pyridin-3-yl]-1-(1H-tetrazol-5-yl)ethyl]pentanoic acid]",IMP1 SM5741 MITC95,[1]; [4],25 µM
same,NDM1 EC30016 MITC95,[2]; [5],6.2 µM
same,VIM1 KP599644 MITC95,[3]; [6],50 µM
"CC(C)C[C@H](C(=O)O)[C@H](Cc1ccc(Oc2ccc(CCN)cc2)nc1)c1nn[nH]n1 [Example 371, (2S)-2-[(1S)-2-{6-[4-(2-aminoethyl)phenoxy]pyridin-3-yl}-1-(2H-tetrazol-5-yl)ethyl]-4-methylpentanoic acid]",IMP1 SM5741 MITC95,[1]; [4],12.5 µM
same,NDM1 EC30016 MITC95,[2]; [5],12.5 µM
same,VIM1 KP599644 MITC95,[3]; [6],75 µM
same,pIC50,IMP-1; IMP-1 enzyme 2 pM,6.54
same,pIC50,NDM-1; NDM-1 enzyme 1 pM,7.03
"CC(C)C[C@H](C(=O)O)[C@H](Cc1ccc(Oc2ccccc2N2CCNCC2)nc1)c1nn[nH]n1 [Example 372, (2S)-4-methyl-2-[(1S)-2-[6-(2-piperazin-1-ylphenoxy)pyridin-3-yl]-1-(2H-tetrazol-5-yl)ethyl]pentanoic acid]",IMP1 SM5741 MITC95,[1]; [4],75 µM
same,NDM1 EC30016 MITC95,[2]; [5],38 µM
same,VIM1 KP599644 MITC95,[3]; [6],>200 µM
same,pIC50,IMP-1; IMP-1 enzyme 2 pM,5.80
same,pIC50,NDM-1; NDM-1 enzyme 1 pM,6.24
"CC(C)C[C@H](C(=O)O)[C@H](Cc1ccc(Oc2ccccc2N2CCNCC2)nc1)c1nn[nH]n1 [Example 387, (2S)-4-methyl-2-[(1S)-2-[6-(2-piperazin-1-ylphenoxy)pyridin-3-yl]-1-(2H-tetrazol-5-yl)ethyl]pentanoic acid]",IMP1 SM5741 MITC95,[1]; [4],>200 µM
same,NDM1 EC30016 MITC95,[2]; [5],>200 µM
same,VIM1 KP599644 MITC95,[3]; [6],>200 µM
same,pIC50,IMP-1; IMP-1 enzyme 2 pM,5.62
same,pIC50,NDM-1; NDM-1 enzyme 1 pM,6.06
"CC(C)C[C@H](C(=O)O)[C@H](Cc1ccc(Oc2ccc(CCN)cc2)nc1)c1nn[nH]n1 [Example 392, (2S)-2-[(1S)-2-{6-[4-(2-aminoethyl)phenoxy]pyridin-3-yl}-1-(2H-tetrazol-5-yl)ethyl]-4-methylpentanoic acid]",IMP1 SM5741 MITC95,[1]; [4],25 µM
same,NDM1 EC30016 MITC95,[2]; [5],6.2 µM
same,VIM1 KP599644 MITC95,[3]; [6],75 µM
same,pIC50,IMP-1; IMP-1 enzyme 2 pM,6.57
same,pIC50,NDM-1; NDM-1 enzyme 1 pM,7.31
"CC(C)(C)[C@H](C(=O)O)[C@H](Cc1ccc(NCCO)nc1)c1nnn[nH]1.O=C(O)C(F)(F)F [Example 428, 2,2,2-trifluoroacetate]",pIC50,IMP-1; IMP-1 enzyme 2 pM,7.73
same,pIC50,VIM-1; VIM-1 enzyme 30 pM,7.43
same,pIC50,NDM-1; NDM-1 enzyme 1 pM,7.34
CC(C)(C)[C@H](C(=O)O)[C@H](Cc1ccc(NCCO)nc1)c1nnn[nH]1.O=C(O)C(F)(F)F [Example 428],IMP1 SM5741 MITC95,[1]; [4],1.563 µM
same,NDM1 EC30016 MITC95,[2]; [5],0.7813 µM
same,VIM1 KP599644 MITC95,[3]; [6],12.5 µM
